One block for each compound: values may come before it.
Columns and labels:
MDA468 = assay: CellTiter-Glo cell viability assay, MDA468; assay type: cell-based; details: Breast; for IC50: MDA468, 72 hours
Experimental: (§1) Cell Viability Assay—Cell viability was measured by the CellTiter-Glo® cell viability assay Promega (Madison, Wis.). The CellTiter-Glo® Luminescent Cell Viability Assay is a homogeneous method to determine the number of viable cells in culture based on quantitation of the ATP present, which signals the presence of metabolically active cells. Following treatment, CellTiter-Glo® is added to treatment wells and incubated at 37° C. luminescence values were measured at using a Molecular Devices Spectramax microplate reader.
(§2) Single Agent Studies—Cells were grown to 70% confluency, trypsinized, counted, and seeded in 96 well flat-bottom plates at a final concentration of 2.5×10^3-5×10^3 cells/well (Day 0). Cells were allowed to incubate in growth media for 24 hours. Treatment with the test agents began on Day 1 and continued for 72 hours. At the 72-hour time point, treatment-containing media was removed. Viable cell numbers are quantified by the CellTiter-Glo® cell viability assay as described above. Experiments were run with triplicate concentrations to determine growth inhibitory activity. Results from these studies were used to calculate an IC50 value (concentration of drug that inhibits cell growth by 50 percent of control) for each compound.
(§3) Data Collection—For single agent and combination studies, data from each experiment was collected and expressed as % Cell Growth using the following calculation: % Cell Growth=(ftest/fvehicle)×100
(§4) Where ftest is the luminescence of the tested sample, and fvehicle is the luminescence of the vehicle in which the drug is dissolved. Dose response graphs and IC50 values were generated using Prism 6 software (GraphPad).

JEKO = assay: CellTiter-Glo cell viability assay, JEKO; assay type: cell-based; details: Lymphoma; for IC50: 72 hours
Experimental: as §1, §2, §3, §4

HDAC3 = HDAC3 (Homo sapiens (Human), UniProt O15379); assay: In vitro HDAC enzyme inhibition, mobility shift; assay type: biochemical; details: purified enzyme
Chain of HDAC3 (O15379 whole entry): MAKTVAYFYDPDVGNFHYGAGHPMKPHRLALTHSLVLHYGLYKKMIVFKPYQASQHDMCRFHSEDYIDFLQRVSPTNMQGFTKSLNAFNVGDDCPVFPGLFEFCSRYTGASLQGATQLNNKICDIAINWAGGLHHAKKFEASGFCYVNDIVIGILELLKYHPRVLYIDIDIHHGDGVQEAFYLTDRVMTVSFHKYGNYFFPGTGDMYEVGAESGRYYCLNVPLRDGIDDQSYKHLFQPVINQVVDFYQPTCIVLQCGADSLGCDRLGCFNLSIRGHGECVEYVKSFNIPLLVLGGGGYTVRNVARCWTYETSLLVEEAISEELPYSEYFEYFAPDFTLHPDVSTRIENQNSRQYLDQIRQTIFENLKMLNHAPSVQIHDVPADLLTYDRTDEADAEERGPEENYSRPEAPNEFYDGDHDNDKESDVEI
Chain of HDAC3 (Q9Y618 395-489 partner): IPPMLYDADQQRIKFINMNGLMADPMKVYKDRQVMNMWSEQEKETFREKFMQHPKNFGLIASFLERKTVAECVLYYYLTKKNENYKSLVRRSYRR
Experimental: (§5) Purified histone deacetylase enzymes 1, 3, 6, 10 were incubated with fluorescently labeled substrate and test compounds in a standardized reaction mixture in 384 well plates. Upon termination of the reaction, samples were introduced onto microfluidic chips. Samples migrate through channels in the chips and product and substrate are separated based on the difference in their charge and mass (electrophoretic mobility shift). Enzyme activity is measured by direct comparison of the fluorescence in the product and substrate peaks and the results presented in Table 4.

HDAC10 = HDAC10 (Homo sapiens (Human), UniProt Q969S8); assay: In vitro HDAC enzyme inhibition, mobility shift; assay type: biochemical; details: purified enzyme
Chain of HDAC10 (Q969S8 whole entry): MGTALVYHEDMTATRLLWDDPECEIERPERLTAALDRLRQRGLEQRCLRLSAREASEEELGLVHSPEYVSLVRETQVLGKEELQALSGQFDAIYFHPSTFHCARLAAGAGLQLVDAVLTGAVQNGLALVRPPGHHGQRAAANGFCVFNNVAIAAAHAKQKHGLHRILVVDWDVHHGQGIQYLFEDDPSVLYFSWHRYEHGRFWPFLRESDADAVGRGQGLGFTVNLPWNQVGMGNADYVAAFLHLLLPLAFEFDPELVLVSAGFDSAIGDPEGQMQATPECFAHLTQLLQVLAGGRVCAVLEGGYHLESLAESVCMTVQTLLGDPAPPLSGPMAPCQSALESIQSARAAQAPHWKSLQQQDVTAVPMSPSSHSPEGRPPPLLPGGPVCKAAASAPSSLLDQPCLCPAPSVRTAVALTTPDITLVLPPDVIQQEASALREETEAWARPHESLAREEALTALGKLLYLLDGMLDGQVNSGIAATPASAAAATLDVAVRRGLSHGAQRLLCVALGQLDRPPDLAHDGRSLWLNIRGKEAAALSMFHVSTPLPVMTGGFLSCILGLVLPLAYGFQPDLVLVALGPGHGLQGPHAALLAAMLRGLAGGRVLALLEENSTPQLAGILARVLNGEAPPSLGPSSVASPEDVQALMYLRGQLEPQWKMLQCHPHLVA
Experimental: as §5

HDAC6 = HDAC6 (Homo sapiens (Human), UniProt Q9UBN7); assay: In vitro HDAC enzyme inhibition, mobility shift; assay type: biochemical; details: purified enzyme
Chain of HDAC6 (Q9UBN7 whole entry): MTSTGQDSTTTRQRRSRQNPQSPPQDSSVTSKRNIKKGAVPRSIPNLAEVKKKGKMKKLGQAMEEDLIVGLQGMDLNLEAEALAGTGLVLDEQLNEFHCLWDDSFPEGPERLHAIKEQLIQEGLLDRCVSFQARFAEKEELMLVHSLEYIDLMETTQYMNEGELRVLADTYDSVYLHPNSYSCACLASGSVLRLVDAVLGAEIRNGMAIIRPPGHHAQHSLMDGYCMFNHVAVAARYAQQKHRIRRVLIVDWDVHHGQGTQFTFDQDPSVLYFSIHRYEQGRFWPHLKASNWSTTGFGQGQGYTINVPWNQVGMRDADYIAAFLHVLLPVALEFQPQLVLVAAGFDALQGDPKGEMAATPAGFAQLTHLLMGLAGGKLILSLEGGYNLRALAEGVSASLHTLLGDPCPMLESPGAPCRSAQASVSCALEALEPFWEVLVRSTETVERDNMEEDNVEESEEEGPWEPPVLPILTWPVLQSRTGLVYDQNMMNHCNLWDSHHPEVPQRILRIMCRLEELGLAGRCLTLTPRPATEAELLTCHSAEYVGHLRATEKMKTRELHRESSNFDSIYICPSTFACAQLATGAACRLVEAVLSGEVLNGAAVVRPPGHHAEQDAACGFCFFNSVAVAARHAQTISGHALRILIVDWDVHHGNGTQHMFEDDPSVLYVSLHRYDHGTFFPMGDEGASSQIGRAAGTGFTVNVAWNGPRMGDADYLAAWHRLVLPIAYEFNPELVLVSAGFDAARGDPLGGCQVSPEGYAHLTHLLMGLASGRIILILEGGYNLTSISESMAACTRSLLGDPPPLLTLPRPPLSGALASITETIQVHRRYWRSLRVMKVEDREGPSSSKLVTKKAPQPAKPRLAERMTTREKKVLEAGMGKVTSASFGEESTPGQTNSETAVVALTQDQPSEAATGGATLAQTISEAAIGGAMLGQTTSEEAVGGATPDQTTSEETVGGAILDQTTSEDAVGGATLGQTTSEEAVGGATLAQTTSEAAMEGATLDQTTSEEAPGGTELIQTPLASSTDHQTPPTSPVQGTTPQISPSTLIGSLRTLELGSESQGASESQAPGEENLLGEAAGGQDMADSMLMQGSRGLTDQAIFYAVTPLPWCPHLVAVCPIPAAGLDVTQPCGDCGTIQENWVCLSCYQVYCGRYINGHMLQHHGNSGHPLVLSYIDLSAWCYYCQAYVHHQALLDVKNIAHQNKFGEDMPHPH
Experimental: as §5

HDAC1 = HDAC1 (Homo sapiens (Human), UniProt Q13547); assay: In vitro HDAC enzyme inhibition, mobility shift; assay type: biochemical; details: purified enzyme
Chain of HDAC1 (Q13547 whole entry): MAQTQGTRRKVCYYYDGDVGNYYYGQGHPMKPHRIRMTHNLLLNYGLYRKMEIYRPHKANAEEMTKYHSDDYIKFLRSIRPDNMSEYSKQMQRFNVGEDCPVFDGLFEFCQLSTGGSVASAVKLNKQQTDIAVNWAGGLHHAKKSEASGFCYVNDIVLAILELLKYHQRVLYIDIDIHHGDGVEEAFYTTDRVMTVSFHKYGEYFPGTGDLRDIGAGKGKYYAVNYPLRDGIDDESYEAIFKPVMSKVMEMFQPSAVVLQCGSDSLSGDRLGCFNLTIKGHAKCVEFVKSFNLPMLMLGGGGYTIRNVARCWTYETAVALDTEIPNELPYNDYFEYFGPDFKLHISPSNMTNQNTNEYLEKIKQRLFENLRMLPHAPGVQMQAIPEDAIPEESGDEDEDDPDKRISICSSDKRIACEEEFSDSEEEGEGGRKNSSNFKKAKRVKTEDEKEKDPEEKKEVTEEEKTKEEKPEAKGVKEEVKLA
Experimental: as §5

S9 in vitro half-life = assay type: in vitro ADME; details: S9 fraction
MFE296 = assay: CellTiter-Glo cell viability assay, MFE296; assay type: cell-based; details: Uterine; for IC50: Homo sapiens, MFE-296, MFE296, 72 hours
Experimental: as §1, §2, §3, §4

KMS-34 = assay: CellTiter-Glo cell viability assay, KMS-34; assay type: cell-based; details: Myeloma; for IC50: KMS-34, 72 hours
Experimental: as §1, §2, §3, §4

U251 = assay: CellTiter-Glo cell viability assay, U251; assay type: cell-based; details: GBM; for IC50: Homo sapiens, U-251, U251, 72 hours
Experimental: as §1, §2, §3, §4

SNG-M = assay: CellTiter-Glo cell viability assay, SNG-M; assay type: cell-based; details: Uterine; for IC50: 72 hours
Experimental: as §1, §2, §3, §4

SKUT-1B = assay: CellTiter-Glo cell viability assay, SKUT-1B; assay type: cell-based; details: Uterine; for IC50: Homo sapiens, Skut1B, 72 hours
Experimental: as §1, §2, §3, §4

Ishikawa = assay: CellTiter-Glo cell viability assay, Ishikawa; assay type: cell-based; details: Uterine; for IC50: Homo sapiens, 72 hours
Experimental: as §1, §2, §3, §4

MCF7 = assay: CellTiter-Glo cell viability assay, MCF7; assay type: cell-based; details: Breast; for IC50: Homo sapiens, MCF7, 72 hours
Experimental: as §1, §2, §3, §4

RPMI-8226 = assay: CellTiter-Glo cell viability assay, RPMI-8226; assay type: cell-based; details: Myeloma; for IC50: Homo sapiens, RPMI-8226, 72 hours
Experimental: as §1, §2, §3, §4

H1437 = assay: CellTiter-Glo cell viability assay, H1437; assay type: cell-based; details: NSCLC; for IC50: Homo sapiens, NCI-H1437, H1437, 72 hours
Experimental: as §1, §2, §3, §4

KMS-11 = assay: CellTiter-Glo cell viability assay, KMS-11; assay type: cell-based; details: Myeloma; for IC50: Homo sapiens, KMS-11, 72 hours
Experimental: as §1, §2, §3, §4

SKUT-1 = assay: CellTiter-Glo cell viability assay, SKUT-1; assay type: cell-based; details: Uterine; for IC50: Homo sapiens, SK-UT-1, SKUT-1, 72 hours
Experimental: as §1, §2, §3, §4

GIST882 = assay: CellTiter-Glo cell viability assay, GIST882; assay type: cell-based; details: GIST; for IC50: Homo sapiens, GIST882, 72 hours
Experimental: as §1, §2, §3, §4

GIST48 = assay: CellTiter-Glo cell viability assay, GIST48; assay type: cell-based; details: GIST; for IC50: Homo sapiens, GIST48, 72 hours
Experimental: as §1, §2, §3, §4

Raji = assay: CellTiter-Glo cell viability assay, Raji; assay type: cell-based; details: Lymphoma; for IC50: Homo sapiens, 72 hours
Experimental: as §1, §2, §3, §4

MV411 = assay: CellTiter-Glo cell viability assay, MV411; assay type: cell-based; details: AML; for IC50: Homo sapiens, MV4-11, MV411, 72 hours
Experimental: as §1, §2, §3, §4

H1650 = assay: CellTiter-Glo cell viability assay, H1650; assay type: cell-based; details: NSCLC; for IC50: Homo sapiens, NCI-H1650, H1650, 72 hours
Experimental: as §1, §2, §3, §4

H460 = assay: CellTiter-Glo cell viability assay, H460; assay type: cell-based; details: NSCLC; for IC50: Homo sapiens, NCI-H460, H460, 72 hours
Experimental: as §1, §2, §3, §4

MFE280 = assay: CellTiter-Glo cell viability assay, MFE280; assay type: cell-based; details: Uterine; for IC50: Homo sapiens, MFE-280, MFE280, 72 hours
Experimental: as §1, §2, §3, §4

ES2 = assay: CellTiter-Glo cell viability assay, ES2; assay type: cell-based; details: Ovarian; for IC50: Homo sapiens, ES-2, ES2, 72 hours
Experimental: as §1, §2, §3, §4

AN3CA = assay: CellTiter-Glo cell viability assay, AN3CA; assay type: cell-based; details: Uterine; for IC50: Homo sapiens, AN3-CA, 72 hours
Experimental: as §1, §2, §3, §4

% PPB, rat = assay type: in vitro ADME; details: plasma; rat (r)

- IC50 (HDAC3): 0.019 µM
- IC50 (HDAC10): 0.137 µM
- IC50 (HDAC6): 0.0064 µM
- IC50 (HDAC1): 0.13 µM
- half-life (S9 in vitro half-life): 74.8 min
- IC50 (U251): 1580 nM
- IC50 (SKUT-1B): 2.51 µM
- IC50 (MCF7): 1960 nM
- IC50 (RPMI-8226): 660 nM
- IC50 (H1437): 2.19 µM
- IC50 (SKUT-1): 3.8 µM
- IC50 (Raji): 1.83 µM
- IC50 (MV411): 630 nM
- IC50 (H1650): 6.61 µM
- IC50 (H460): 3.47 µM
- fraction unbound (% PPB, rat): 0.0017
Compound: O=C(NO)c1ccc(Nc2nc3ccccc3n2CC2CCCCC2)cc1 [ID #1, 4-((1-(cyclohexylmethyl)-1H-benzo[d]imidazol-2-yl)amino)-N-hydroxybenzamide]
- Improvement ID #1 over ID #3 Percent (MDA468; MDA468): 58.63%
- Improvement ID #1 over ID #3 fold (MDA468; MDA468): 2.42 fold
- IC50 (MDA468): 3.86 µM
- Improvement ID #1 over ID #3 Percent (JEKO): 56.31%
- Improvement ID #1 over ID #3 fold (JEKO): 2.29 fold
- IC50 (JEKO): 970 nM
- IC50 (MFE296): 4.37 µM
- Improvement ID #1 over ID #3 Percent (MFE296; MFE296): 65.29%
- Improvement ID #1 over ID #3 fold (MFE296; MFE296): 2.88 fold
- Improvement ID #1 over ID #3 Percent (KMS-34; KMS-34): 55.15%
- Improvement ID #1 over ID #3 fold (KMS-34; KMS-34): 2.23 fold
- IC50 (KMS-34): 610 nM
- Improvement ID #1 over ID #3 Percent (U251; U251): 61.18%
- Improvement ID #1 over ID #3 fold (U251; U251): 2.58 fold
- Improvement ID #1 over ID #3 Percent (SNG-M): 78.93%
- Improvement ID #1 over ID #3 fold (SNG-M): 4.75 fold
- IC50 (SNG-M): 1.7 µM
- Improvement ID #1 over ID #3 Percent (SKUT-1B): 63.73%
- Improvement ID #1 over ID #3 fold (SKUT-1B): 2.76 fold
- IC50 (Ishikawa): 1.7 µM
- Improvement ID #1 over ID #3 Percent (Ishikawa): 61.10%
- Improvement ID #1 over ID #3 fold (Ishikawa): 2.57 fold
- Improvement ID #1 over ID #3 Percent (MCF7; MCF7): 44.79%
- Improvement ID #1 over ID #3 fold (MCF7; MCF7): 1.81 fold
- Improvement ID #1 over ID #3 Percent (RPMI-8226; RPMI-8226): 56.29%
- Improvement ID #1 over ID #3 fold (RPMI-8226; RPMI-8226): 2.29 fold
- Improvement ID #1 over ID #3 Percent (H1437; H1437): 54.28%
- Improvement ID #1 over ID #3 fold (H1437; H1437): 2.19 fold
- IC50 (KMS-11): 1420 nM
- Improvement ID #1 over ID #3 Percent (KMS-11; KMS-11): 52.98%
- Improvement ID #1 over ID #3 fold (KMS-11; KMS-11): 2.13 fold
- Improvement ID #1 over ID #3 Percent (SKUT-1; SKUT-1): 60.21%
- Improvement ID #1 over ID #3 fold (SKUT-1; SKUT-1): 2.51 fold
- Improvement ID #1 over ID #3 Percent (GIST882; GIST882): 67.66%
- Improvement ID #1 over ID #3 fold (GIST882; GIST882): 3.09 fold
- IC50 (GIST882): 5.75 µM
- Improvement ID #1 over ID #3 Percent (GIST48; GIST48): 68.87%
- Improvement ID #1 over ID #3 fold (GIST48; GIST48): 3.21 fold
- IC50 (GIST48): 1320 nM
- Improvement ID #1 over ID #3 Percent (Raji): 62.11%
- Improvement ID #1 over ID #3 fold (Raji): 2.64 fold
- Improvement ID #1 over ID #3 Percent (MV411; MV411): 77.09%
- Improvement ID #1 over ID #3 fold (MV411; MV411): 4.37 fold
- Improvement ID #1 over ID #3 Percent (H1650; H1650): 63.68%
- Improvement ID #1 over ID #3 fold (H1650; H1650): 2.75 fold
- Improvement ID #1 over ID #3 Percent (H460; H460): 66.86%
- Improvement ID #1 over ID #3 fold (H460; H460): 3.02 fold
- IC50 (MFE280): 5.01 µM
- Improvement ID #1 over ID #3 Percent (MFE280; MFE280): 48.40%
- Improvement ID #1 over ID #3 fold (MFE280; MFE280): 1.94 fold
- IC50 (ES2): 3.98 µM
- Improvement ID #1 over ID #3 Percent (ES2; ES2): 69.80%
- Improvement ID #1 over ID #3 fold (ES2; ES2): 3.31 fold
- IC50 (AN3CA): 1.6 µM
- Improvement ID #1 over ID #3 Percent (AN3CA): 64.99%
- Improvement ID #1 over ID #3 fold (AN3CA): 2.86 fold

- IC50 (HDAC3): 0.079 µM
- IC50 (HDAC10): 3.12 µM
- IC50 (HDAC6): 0.0145 µM
- IC50 (HDAC1): 0.445 µM
- half-life (S9 in vitro half-life): 72.9 min
- IC50 (U251): 4070 nM
- IC50 (SKUT-1B): 6.92 µM
- IC50 (MCF7): 3550 nM
- IC50 (RPMI-8226): 1510 nM
- IC50 (H1437): 4.79 µM
- IC50 (SKUT-1): 9.55 µM
- IC50 (Raji): 4.83 µM
- IC50 (MV411): 2750 nM
- IC50 (H1650): 18.2 µM
- IC50 (H460): 10.5 µM
- fraction unbound (% PPB, rat): 0.0055
Compound: O=C(NO)c1ccc(Nc2nc3ccccc3n2C2CCCCCC2)cc1 [ID #3, 4-((1-cycloheptyl-1H-benzo[d]imidazol-2-yl)amino)-N-hydroxybenzamide]
- IC50 (MDA468): 9.33 µM
- IC50 (JEKO): 2220 nM
- IC50 (MFE296): 12.6 µM
- IC50 (KMS-34): 1360 nM
- IC50 (SNG-M): 8.07 µM
- IC50 (Ishikawa): 4.37 µM
- IC50 (KMS-11): 3020 nM
- IC50 (GIST882): 17.8 µM
- IC50 (GIST48): 4240 nM
- IC50 (MFE280): 9.71 µM
- IC50 (ES2): 13.2 µM
- IC50 (AN3CA): 4.57 µM

— US11236052B2, “Aminobenzimidazole derivatives, treatments, and methods of inhibiting histone deacetylase” (TRANSLATIONAL DRUG DEVELOPMENT, LLC, priority 2017, dated 2022)
